Where a SMILES comes first, the peptide text is derived from it. [ ]: non-standard residue; d: D form. pGlu = O=C1CC[C@@H](C(=O)O)N1; Thz = O=C(O)[C@@H]1CSCN1
Key:
[1] = target: T1, Type-1 angiotensin II receptor (Homo sapiens, UniProt P30556)
T1 sequence (P30556 whole entry): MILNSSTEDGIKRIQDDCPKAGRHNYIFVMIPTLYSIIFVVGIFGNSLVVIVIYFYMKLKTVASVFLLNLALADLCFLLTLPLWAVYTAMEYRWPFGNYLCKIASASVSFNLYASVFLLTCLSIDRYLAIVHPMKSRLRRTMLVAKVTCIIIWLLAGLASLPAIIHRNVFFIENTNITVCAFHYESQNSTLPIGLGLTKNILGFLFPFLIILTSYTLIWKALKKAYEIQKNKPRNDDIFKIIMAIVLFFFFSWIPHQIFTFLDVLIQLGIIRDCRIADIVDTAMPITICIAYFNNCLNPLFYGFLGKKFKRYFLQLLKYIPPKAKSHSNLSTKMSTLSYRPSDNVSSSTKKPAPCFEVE

[2] = target: T2, 5-hydroxytryptamine receptor 2B (Homo sapiens, UniProt P41595); assay type: functional, cell-based
Histamine H2 receptor = Histamine H2 receptor (Homo sapiens, UniProt P25021); assay type: functional, cell-based
[3] = target: Beta-1 adrenergic receptor (Homo sapiens, UniProt P08588); assay type: functional
[4] = target: T3, Muscarinic acetylcholine receptor M2 (Homo sapiens, UniProt P08172); assay type: functional, cell-based
T3 sequence (P08172 whole entry): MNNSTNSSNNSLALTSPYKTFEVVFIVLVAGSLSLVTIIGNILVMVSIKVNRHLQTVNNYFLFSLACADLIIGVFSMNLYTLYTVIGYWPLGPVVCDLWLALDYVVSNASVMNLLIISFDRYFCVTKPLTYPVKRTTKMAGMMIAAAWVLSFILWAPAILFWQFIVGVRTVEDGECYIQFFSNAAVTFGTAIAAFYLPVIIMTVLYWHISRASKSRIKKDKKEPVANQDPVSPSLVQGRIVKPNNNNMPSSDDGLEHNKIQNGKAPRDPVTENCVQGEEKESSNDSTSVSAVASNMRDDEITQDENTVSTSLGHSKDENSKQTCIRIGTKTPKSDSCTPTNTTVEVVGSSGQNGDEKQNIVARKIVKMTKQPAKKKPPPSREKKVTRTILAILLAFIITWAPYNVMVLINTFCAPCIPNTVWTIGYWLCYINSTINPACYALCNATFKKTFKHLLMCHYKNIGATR

[5] = target: T2, 5-hydroxytryptamine receptor 2B; assay type: functional, cell-based; remark: listed apart in the source
[6] = target: T4, Alpha-2C adrenergic receptor (Homo sapiens, UniProt P18825); assay type: functional
T4 sequence (P18825 whole entry): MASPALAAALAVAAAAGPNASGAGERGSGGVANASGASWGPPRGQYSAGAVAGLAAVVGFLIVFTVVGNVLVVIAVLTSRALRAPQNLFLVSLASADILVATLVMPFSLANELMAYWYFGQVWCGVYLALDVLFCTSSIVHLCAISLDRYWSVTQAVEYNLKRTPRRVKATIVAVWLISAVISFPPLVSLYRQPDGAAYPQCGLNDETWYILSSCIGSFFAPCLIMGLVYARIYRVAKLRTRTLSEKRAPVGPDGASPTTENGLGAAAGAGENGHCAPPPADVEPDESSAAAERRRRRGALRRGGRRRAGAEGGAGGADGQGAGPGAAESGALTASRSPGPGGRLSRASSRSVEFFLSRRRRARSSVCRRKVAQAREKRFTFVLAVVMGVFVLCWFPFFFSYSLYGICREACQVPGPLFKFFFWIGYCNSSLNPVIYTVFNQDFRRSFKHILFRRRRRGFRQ

[7] = target: Sodium-dependent noradrenaline transporter (Homo sapiens, UniProt P23975)
[8] = target: Voltage-dependent L-type calcium channel subunit alpha-1C (Rattus norvegicus, UniProt P22002); assay type: functional
[9] = target: T3, Muscarinic acetylcholine receptor M2; assay type: functional, cell-based; remark: listed apart in the source
Vasopressin V2 receptor = Vasopressin V2 receptor (Homo sapiens, UniProt P30518)
[10] = target: T5, Neuropeptide Y receptor type 1 (Homo sapiens, UniProt P25929)
T5 sequence (P25929 whole entry): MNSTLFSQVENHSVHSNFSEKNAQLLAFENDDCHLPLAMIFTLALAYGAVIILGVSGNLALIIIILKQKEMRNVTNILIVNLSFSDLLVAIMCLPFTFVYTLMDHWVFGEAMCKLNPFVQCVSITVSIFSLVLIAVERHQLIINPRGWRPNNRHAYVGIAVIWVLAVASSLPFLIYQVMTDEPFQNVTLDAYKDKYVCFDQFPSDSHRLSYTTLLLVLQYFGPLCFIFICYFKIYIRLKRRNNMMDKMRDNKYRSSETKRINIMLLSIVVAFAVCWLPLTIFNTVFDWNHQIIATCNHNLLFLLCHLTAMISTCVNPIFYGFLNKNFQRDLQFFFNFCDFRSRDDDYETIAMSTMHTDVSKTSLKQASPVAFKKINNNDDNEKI

Adenosine receptor A2a = Adenosine receptor A2a (Homo sapiens, UniProt P29274)
D(3) dopamine receptor = D(3) dopamine receptor (Homo sapiens, UniProt P35462)
[11] = target: T6, Alpha-2A adrenergic receptor (Homo sapiens, UniProt P08913); assay type: functional, cell-based
T6 sequence (P08913 whole entry): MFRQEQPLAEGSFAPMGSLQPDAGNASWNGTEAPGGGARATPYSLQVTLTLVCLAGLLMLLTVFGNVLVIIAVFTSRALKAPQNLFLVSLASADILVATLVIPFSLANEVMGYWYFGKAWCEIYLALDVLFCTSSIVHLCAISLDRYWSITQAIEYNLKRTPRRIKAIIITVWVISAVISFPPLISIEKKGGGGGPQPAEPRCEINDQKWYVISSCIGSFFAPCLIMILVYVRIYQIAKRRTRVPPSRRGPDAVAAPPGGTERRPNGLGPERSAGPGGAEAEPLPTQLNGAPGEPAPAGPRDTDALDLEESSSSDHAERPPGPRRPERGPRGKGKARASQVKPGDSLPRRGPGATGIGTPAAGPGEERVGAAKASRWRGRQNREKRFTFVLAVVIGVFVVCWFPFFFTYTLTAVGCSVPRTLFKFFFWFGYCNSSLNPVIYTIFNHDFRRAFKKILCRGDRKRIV

[12] = target: cGMP-inhibited 3',5'-cyclic phosphodiesterase 3A (Homo sapiens, UniProt Q14432); assay type: functional
Further: assay procedure not described here.

Sequence of Voltage-dependent L-type calcium channel subunit alpha-1C (P22002 whole entry): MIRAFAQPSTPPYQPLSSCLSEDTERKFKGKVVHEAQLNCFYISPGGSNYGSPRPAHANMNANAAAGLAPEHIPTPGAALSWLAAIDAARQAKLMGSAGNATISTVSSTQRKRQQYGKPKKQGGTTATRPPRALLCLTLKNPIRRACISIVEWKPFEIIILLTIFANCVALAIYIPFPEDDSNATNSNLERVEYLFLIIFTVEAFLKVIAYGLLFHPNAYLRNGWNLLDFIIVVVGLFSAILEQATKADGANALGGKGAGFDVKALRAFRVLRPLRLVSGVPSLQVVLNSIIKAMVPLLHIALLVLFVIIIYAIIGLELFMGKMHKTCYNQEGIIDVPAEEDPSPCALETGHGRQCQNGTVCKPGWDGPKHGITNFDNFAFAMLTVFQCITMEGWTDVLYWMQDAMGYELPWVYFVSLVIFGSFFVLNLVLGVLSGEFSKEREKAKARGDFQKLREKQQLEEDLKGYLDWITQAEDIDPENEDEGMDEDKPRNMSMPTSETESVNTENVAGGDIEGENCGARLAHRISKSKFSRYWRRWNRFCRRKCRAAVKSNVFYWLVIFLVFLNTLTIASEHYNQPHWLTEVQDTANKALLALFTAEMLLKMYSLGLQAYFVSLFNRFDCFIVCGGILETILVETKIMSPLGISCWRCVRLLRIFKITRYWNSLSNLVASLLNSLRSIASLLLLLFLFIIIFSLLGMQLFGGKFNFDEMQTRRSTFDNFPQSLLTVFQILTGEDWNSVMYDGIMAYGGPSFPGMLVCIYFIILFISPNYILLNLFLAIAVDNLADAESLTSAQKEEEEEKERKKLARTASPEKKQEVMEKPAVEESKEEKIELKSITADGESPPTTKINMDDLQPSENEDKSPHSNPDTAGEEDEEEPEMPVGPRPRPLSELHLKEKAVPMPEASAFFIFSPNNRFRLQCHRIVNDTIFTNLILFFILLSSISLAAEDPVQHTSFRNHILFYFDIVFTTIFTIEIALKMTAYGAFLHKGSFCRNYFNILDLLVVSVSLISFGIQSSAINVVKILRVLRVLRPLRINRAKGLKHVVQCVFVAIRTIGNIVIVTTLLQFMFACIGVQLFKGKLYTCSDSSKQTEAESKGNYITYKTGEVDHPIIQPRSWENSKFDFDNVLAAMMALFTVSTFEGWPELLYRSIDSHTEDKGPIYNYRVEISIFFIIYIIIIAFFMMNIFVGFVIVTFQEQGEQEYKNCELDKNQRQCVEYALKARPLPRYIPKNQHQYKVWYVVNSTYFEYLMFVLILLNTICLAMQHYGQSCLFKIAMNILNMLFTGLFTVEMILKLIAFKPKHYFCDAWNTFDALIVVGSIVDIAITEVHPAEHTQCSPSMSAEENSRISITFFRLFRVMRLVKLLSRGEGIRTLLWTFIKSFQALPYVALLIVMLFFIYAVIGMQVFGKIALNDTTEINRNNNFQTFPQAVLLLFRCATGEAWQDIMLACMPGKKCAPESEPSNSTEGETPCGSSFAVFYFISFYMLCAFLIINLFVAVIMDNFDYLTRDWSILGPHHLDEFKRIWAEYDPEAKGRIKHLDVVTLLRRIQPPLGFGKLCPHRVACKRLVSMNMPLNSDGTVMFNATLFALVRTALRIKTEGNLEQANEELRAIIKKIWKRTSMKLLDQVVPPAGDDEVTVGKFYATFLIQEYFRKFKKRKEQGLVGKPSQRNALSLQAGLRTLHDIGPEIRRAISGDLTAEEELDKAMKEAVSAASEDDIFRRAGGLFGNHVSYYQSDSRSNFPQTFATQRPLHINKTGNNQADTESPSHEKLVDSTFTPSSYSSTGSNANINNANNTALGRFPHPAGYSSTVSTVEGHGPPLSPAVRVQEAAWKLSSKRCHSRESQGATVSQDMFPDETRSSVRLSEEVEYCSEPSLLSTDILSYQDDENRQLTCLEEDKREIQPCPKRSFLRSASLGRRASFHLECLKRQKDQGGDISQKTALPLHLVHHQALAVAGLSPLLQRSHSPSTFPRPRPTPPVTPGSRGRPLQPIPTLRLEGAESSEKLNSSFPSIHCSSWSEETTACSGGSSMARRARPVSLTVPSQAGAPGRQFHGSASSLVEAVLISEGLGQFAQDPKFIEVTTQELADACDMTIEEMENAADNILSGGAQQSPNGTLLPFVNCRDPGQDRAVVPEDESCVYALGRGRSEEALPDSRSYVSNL
Sequence of Vasopressin V2 receptor (P30518 whole entry): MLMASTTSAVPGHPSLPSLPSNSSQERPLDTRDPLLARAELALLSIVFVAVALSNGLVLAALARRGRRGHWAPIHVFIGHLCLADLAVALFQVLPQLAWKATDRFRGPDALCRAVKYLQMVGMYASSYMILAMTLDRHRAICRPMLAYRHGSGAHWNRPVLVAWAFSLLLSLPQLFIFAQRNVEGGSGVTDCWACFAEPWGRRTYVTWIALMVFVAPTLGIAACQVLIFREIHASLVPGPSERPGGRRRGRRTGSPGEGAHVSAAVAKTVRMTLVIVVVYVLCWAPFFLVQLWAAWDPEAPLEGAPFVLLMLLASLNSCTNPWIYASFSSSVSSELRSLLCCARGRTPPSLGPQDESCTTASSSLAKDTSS
T2 sequence (P41595 whole entry): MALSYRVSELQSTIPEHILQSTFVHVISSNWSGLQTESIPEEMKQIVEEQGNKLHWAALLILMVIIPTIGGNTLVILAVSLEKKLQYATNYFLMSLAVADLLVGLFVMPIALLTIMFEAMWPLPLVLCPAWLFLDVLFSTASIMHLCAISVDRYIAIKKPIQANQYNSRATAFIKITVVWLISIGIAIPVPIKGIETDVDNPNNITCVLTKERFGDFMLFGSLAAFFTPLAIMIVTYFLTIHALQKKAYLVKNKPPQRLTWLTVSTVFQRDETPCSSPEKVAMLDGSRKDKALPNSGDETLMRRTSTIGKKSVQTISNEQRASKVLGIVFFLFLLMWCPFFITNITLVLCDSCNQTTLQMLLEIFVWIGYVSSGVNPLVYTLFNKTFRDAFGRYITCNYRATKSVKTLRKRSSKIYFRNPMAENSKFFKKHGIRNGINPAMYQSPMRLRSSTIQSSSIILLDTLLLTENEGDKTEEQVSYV
Sequence of Sodium-dependent noradrenaline transporter (P23975 whole entry): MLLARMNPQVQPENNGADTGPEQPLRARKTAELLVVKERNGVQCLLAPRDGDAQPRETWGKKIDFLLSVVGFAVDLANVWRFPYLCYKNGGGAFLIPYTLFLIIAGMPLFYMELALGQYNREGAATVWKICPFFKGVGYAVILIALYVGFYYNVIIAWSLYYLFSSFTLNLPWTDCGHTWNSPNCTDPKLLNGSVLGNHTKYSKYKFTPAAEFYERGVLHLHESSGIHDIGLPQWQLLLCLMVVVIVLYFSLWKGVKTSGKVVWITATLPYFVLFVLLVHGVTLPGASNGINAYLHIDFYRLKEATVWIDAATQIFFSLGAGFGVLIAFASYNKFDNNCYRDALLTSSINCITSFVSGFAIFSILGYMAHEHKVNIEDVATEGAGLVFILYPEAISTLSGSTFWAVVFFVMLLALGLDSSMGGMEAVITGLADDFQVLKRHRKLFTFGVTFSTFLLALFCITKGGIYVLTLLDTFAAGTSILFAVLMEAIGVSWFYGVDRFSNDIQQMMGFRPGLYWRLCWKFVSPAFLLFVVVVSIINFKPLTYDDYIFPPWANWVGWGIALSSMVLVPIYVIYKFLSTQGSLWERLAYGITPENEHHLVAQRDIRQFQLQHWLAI
Sequence of Histamine H2 receptor (P25021 whole entry): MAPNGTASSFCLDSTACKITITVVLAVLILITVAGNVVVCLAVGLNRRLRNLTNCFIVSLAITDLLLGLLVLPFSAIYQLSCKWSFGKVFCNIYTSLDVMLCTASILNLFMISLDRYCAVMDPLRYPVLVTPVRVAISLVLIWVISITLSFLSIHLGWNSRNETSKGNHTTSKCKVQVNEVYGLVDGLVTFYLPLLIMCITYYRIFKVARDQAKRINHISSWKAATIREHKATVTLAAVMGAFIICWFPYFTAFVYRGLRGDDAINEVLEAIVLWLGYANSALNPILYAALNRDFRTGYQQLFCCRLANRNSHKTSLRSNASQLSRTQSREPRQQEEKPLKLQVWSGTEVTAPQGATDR
Sequence of Beta-1 adrenergic receptor (P08588 whole entry): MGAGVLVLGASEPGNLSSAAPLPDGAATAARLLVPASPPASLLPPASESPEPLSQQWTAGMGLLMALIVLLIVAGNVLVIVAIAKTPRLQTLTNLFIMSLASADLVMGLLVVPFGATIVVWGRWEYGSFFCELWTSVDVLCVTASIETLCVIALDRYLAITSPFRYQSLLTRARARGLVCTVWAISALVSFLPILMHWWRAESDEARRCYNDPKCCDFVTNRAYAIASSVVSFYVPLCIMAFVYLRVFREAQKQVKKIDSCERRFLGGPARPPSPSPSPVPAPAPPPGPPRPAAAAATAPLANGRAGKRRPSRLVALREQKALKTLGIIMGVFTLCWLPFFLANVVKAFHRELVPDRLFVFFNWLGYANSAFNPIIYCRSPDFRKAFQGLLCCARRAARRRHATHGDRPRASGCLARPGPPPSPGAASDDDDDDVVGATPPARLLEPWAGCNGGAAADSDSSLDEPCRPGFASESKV
Sequence of D(3) dopamine receptor (P35462 whole entry): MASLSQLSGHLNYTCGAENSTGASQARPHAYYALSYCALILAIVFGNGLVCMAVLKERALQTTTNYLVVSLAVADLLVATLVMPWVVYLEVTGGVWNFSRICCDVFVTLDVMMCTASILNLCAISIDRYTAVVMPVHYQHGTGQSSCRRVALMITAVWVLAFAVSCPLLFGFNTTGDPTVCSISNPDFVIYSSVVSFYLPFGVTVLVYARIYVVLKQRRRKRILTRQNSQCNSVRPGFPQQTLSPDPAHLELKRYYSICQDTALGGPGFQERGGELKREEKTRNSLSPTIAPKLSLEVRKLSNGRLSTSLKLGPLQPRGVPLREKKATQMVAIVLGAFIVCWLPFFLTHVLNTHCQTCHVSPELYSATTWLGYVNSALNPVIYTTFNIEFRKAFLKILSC

SMILES | AC50 [1] | AC50 [2] | AC50 (Histamine H2 receptor) | AC50 [3] | AC50 [4] | AC50 [5] | AC50 [6] | AC50 [7] | AC50 [8] | AC50 [9] | AC50 (Vasopressin V2 receptor) | AC50 [10] | AC50 (Adenosine receptor A2a) | AC50 (D(3) dopamine receptor) | AC50 [11] | AC50 [12]
NC(=O)NC(=O)Cc1ccccc1 [PHENACEMIDE] | > 10 µM | > 10 µM | > 10 µM | > 10 µM | > 10 µM | > 10 µM | > 10 µM | > 10 µM | > 10 µM | > 10 µM | > 10 µM | > 10 µM | > 10 µM | > 30 µM | > 10 µM | > 30 µM
OC[C@H]1O[C@@H](Oc2cc(O)cc(/C=C/c3ccc(O)cc3)c2)[C@H](O)[C@@H](O)[C@@H]1O [PICEID] | > 30 µM | > 30 µM | > 30 µM | > 30 µM | > 30 µM | > 30 µM | > 30 µM | > 30 µM | > 30 µM | > 30 µM | > 30 µM | > 30 µM | > 30 µM | > 30 µM | > 30 µM | > 30 µM
O=C1CC[C@@H](C(=O)N2CSC[C@H]2C(=O)O)N1 [PIDOTIMOD] ([pGlu]-[Thz]-OH) | > 30 µM | > 30 µM | > 30 µM | > 30 µM | > 30 µM | > 30 µM | > 30 µM | > 30 µM | > 30 µM | > 30 µM | > 30 µM | > 30 µM | > 30 µM | > 30 µM | > 30 µM | > 30 µM
CCCN(CCC)S(=O)(=O)c1ccc(C(=O)O)cc1 [PROBENECID] | > 10 µM | > 10 µM | > 10 µM | > 10 µM | > 10 µM | > 10 µM | > 10 µM | > 10 µM | > 10 µM | > 10 µM | > 10 µM | > 10 µM | > 10 µM | > 30 µM | > 10 µM | > 30 µM
CCC(NC(C)C)C(O)c1ccc(O)c2[nH]c(=O)ccc12 (configuration not stated) [PROCATEROL] | > 30 µM | > 30 µM | > 30 µM | 17 µM | > 30 µM | > 30 µM | > 30 µM | > 30 µM | > 30 µM | > 30 µM | > 30 µM | > 30 µM | > 30 µM | > 30 µM | > 30 µM | > 30 µM
CCC(=O)O[C@](Cc1ccccc1)(c1ccccc1)[C@H](C)CN(C)C [PROPOXYPHENE] | > 30 µM | > 10 µM | > 10 µM | > 10 µM | > 10 µM | > 10 µM | > 10 µM | > 10 µM | > 10 µM | > 10 µM | > 30 µM | > 30 µM | > 30 µM | > 10 µM | > 10 µM | > 30 µM
CCc1nc(N)nc(N)c1-c1ccc(Cl)cc1 [PYRIMETHAMINE] | > 10 µM | 11.3 µM | > 30 µM | > 10 µM | > 10 µM | 37 µM | > 30 µM | > 30 µM | > 10 µM | > 10 µM | > 10 µM | > 10 µM | > 10 µM | > 30 µM | 9.8 µM | > 30 µM
CC1=C(/C=C/C(C)=C/C=C/C(C)=C/CO)C(C)(C)CCC1 [RETINOL] | > 30 µM | > 10 µM | > 10 µM | > 10 µM | > 10 µM | > 10 µM | > 10 µM | > 10 µM | > 10 µM | > 10 µM | > 10 µM | > 10 µM | > 10 µM | > 30 µM | > 10 µM | > 30 µM
C=CC[N+]1([C@H]2C[C@H]3[C@@H]4CC[C@H]5C[C@H](O)[C@@H](N6CCOCC6)C[C@]5(C)[C@H]4CC[C@]3(C)[C@H]2OC(C)=O)CCCC1 [ROCURONIUM] | 1.2 µM | > 30 µM | > 30 µM | > 30 µM | > 30 µM | > 30 µM | > 30 µM | > 30 µM | > 30 µM | > 30 µM | > 30 µM | > 30 µM | > 30 µM | > 30 µM | > 30 µM | > 30 µM
CCCN1CCCC[C@H]1C(=O)Nc1c(C)cccc1C [ROPIVACAINE] | > 30 µM | > 30 µM | > 30 µM | > 30 µM | > 30 µM | > 30 µM | > 30 µM | > 30 µM | > 30 µM | > 30 µM | > 30 µM | > 30 µM | > 30 µM | > 30 µM | > 30 µM | > 30 µM
Cc1cc(C)nc(NS(=O)(=O)c2ccc(N)cc2)n1 [SULFAMETHAZINE] | > 10 µM | > 10 µM | > 30 µM | > 10 µM | > 10 µM | > 10 µM | > 30 µM | > 10 µM | > 10 µM | > 10 µM | > 10 µM | > 10 µM | > 10 µM | > 30 µM | > 10 µM | > 30 µM
C=CCN1CCc2nc(N)sc2CC1 [TALIPEXOLE] | > 30 µM | > 30 µM | > 30 µM | > 30 µM | > 30 µM | > 30 µM | 0.71 µM | > 30 µM | > 30 µM | > 30 µM | > 30 µM | > 30 µM | > 30 µM | 0.48 µM | 0.083 µM | > 30 µM

Source: ChEMBL document CHEMBL5291721, “A preclinical secondary pharmacology resource illuminates target-adverse drug reaction associations of marketed drugs” (Nat Commun, 2023)
